Experimental data taken from BigSolDB 2.1.

C[C@@H](O)[C@H]1C(=O)N2C(C(=O)[O-])=C(SC3Cn4cnc[n+]4C3)[C@H](C)[C@H]12 (stereo partly drawn)
solubility (mole fraction)
Details | in DMF | in DMSO | in NMP | in acetone | in acetonitrile | in ethanol | in ethyl acetate | in isopropanol | in methanol | in n-propanol
283.15 K | 5.8e-05 | – | 7.58e-05 | 1.77e-06 | 3.63e-05 | 1.49e-05 | 5.21e-05 | 6.66e-06 | 1.86e-05 | 1.17e-05
288.15 K | 6.44e-05 | – | 8.14e-05 | 2.51e-06 | 4.07e-05 | 1.76e-05 | 5.73e-05 | 8.24e-06 | 2.19e-05 | 1.37e-05
293.15 K | 7.11e-05 | 7.86e-05 | 8.79e-05 | 3.4e-06 | 4.61e-05 | 2.09e-05 | 6.48e-05 | 9.98e-06 | 2.59e-05 | 1.62e-05
298.15 K | 7.8e-05 | 8.66e-05 | 9.66e-05 | 4.57e-06 | 5.17e-05 | 2.46e-05 | 7.16e-05 | 1.2e-05 | 3.07e-05 | 1.97e-05
303.15 K | 8.72e-05 | 9.47e-05 | 0.000106 | 5.97e-06 | 5.82e-05 | 2.9e-05 | 7.97e-05 | 1.41e-05 | 3.57e-05 | 2.32e-05
308.15 K | 9.65e-05 | 0.000104 | 0.000117 | 8.13e-06 | 6.67e-05 | 3.41e-05 | 8.9e-05 | 1.69e-05 | 4.18e-05 | 2.7e-05
313.15 K | 0.000107 | 0.000116 | 0.000128 | 1.06e-05 | 7.46e-05 | 3.97e-05 | 9.93e-05 | 2e-05 | 4.9e-05 | 3.19e-05
318.15 K | 0.000119 | 0.000129 | 0.000141 | 1.39e-05 | 8.5e-05 | 4.54e-05 | 0.000111 | 2.37e-05 | 5.63e-05 | 3.71e-05
323.15 K | 0.000131 | 0.000142 | 0.000156 | 1.79e-05 | 9.56e-05 | 5.23e-05 | 0.000123 | 2.79e-05 | 6.61e-05 | 4.32e-05
